# Results as given in ChEMBL document CHEMBL1201862, “PubChem BioAssay data set” (2004).
# Counter-ions that a name gives are not always drawn.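 Growth conditions: 96-well plates. Treatment: test compound, 48 hours, 5 concentrations. Analysis: linear interpolation between bracketing concentrations; unreached endpoints set to highest concentration. GI50 marks 50% less growth.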 Activity calls are given as the source filed them. Rule as the data show it: active = GI50 up to about 1.1 µM and inactive = higher.
# Experiments:
# Assay in all cases: growth of human tumour cells (NCI), 48 h
# 786-0 = test system: 786-0
# A549 = test system: A549
# ACHN = test system: ACHN
# BT-549 = test system: BT-549
# COLO 205 = test system: COLO 205
# DU-145 = test system: DU-145
# EKVX = test system: EKVX
# HCT-116 = test system: HCT-116
# HCT-15 = test system: HCT-15
# HOP-62 = test system: HOP-62
# HOP-92 = test system: HOP-92
# HT-29 = test system: HT-29
# Hs-578T = test system: Hs-578T
# IGROV-1 = test system: IGROV-1
# LOX IMVI = test system: LOX IMVI
# M14 = test system: M14
# MCF7 = test system: MCF7
# MDA-MB-231 = test system: MDA-MB-231
# MDA-N = test system: MDA-N
# MOLT-4 = test system: MOLT-4
# Malme-3M = test system: Malme-3M
# NCI-H226 = test system: NCI-H226
# NCI-H460 = test system: NCI-H460
# NCI-H522 = test system: NCI-H522
# NCI/ADR-RES = test system: NCI/ADR-RES
# OVCAR-3 = test system: OVCAR-3
# OVCAR-4 = test system: OVCAR-4
# OVCAR-5 = test system: OVCAR-5
# OVCAR-8 = test system: OVCAR-8
# PC-3 = test system: PC-3
# SF-268 = test system: SF-268
# SF-295 = test system: SF-295
# SK-MEL-2 = test system: SK-MEL-2
# SK-MEL-5 = test system: SK-MEL-5
# SK-OV-3 = test system: SK-OV-3
# SN12C = test system: SN12C
# SNB-19 = test system: SNB-19
# SNB-75 = test system: SNB-75
# SR = test system: SR
# SW-620 = test system: SW-620
# T47D = test system: T47D
# UACC-257 = test system: UACC-257
# UACC-62 = test system: UACC-62
# UO-31 = test system: UO-31
# A498 = test system: A498
# CAKI-1 = test system: CAKI-1
# CCRF-CEM = test system: CCRF-CEM
# HL-60 = test system: HL-60
# K562 = test system: K562
# KM12 = test system: KM12
# MDA-MB-435 = test system: MDA-MB-435
# NCI-H23 = test system: NCI-H23
# RPMI-8226 = test system: RPMI-8226
# RXF 393 = test system: RXF 393
# SF-539 = test system: SF-539
# TK-10 = test system: TK-10
# U-251 = test system: U-251
# HCC 2998 = test system: HCC 2998
# SK-MEL-28 = test system: SK-MEL-28
structure (smiles),measurement,setting,value
CC(C)(C)[Si](C)(C)OCC1OC(n2ccc(N)nc2=O)C(O[Si](C)(C)C(C)(C)C)C1O[Si](C)(C)C(C)(C)C (centres undefined),GI50,786-0,1.59 µM (inactive)
same,GI50,A549,3.44 µM (inactive)
same,GI50,ACHN,1.82 µM (inactive)
same,GI50,BT-549,1.62 µM (inactive)
same,GI50,COLO 205,3.09 µM (inactive)
same,GI50,DU-145,9.59 µM (inactive)
same,GI50,EKVX,3.22 µM (inactive)
same,GI50,HCT-116,3.14 µM (inactive)
same,GI50,HCT-15,2.23 µM
same,GI50,HOP-62,2.06 µM (inactive)
same,GI50,HOP-92,2.17 µM (inactive)
same,GI50,HT-29,1.56 µM (inactive)
same,GI50,Hs-578T,2.55 µM (inactive)
same,GI50,IGROV-1,2.04 µM (inactive)
same,GI50,LOX IMVI,1.71 µM (inactive)
same,GI50,M14,1.8 µM (inactive)
same,GI50,MCF7,2.14 µM (inactive)
same,GI50,MDA-MB-231,10.8 µM (inactive)
same,GI50,MDA-N,3.89 µM (inactive)
same,GI50,MOLT-4,1.47 µM (inactive)
same,GI50,Malme-3M,1.8 µM (inactive)
same,GI50,NCI-H226,1.36 µM (inactive)
same,GI50,NCI-H460,1.9 µM (inactive)
same,GI50,NCI-H522,1.83 µM (inactive)
same,GI50,NCI/ADR-RES,15.8 µM (inactive)
same,GI50,OVCAR-3,1.73 µM (inactive)
same,GI50,OVCAR-4,0.0356 µM (active)
same,GI50,OVCAR-5,1.63 µM (inactive)
same,GI50,OVCAR-8,2.33 µM (inactive)
same,GI50,PC-3,1.74 µM (inactive)
same,GI50,SF-268,2.56 µM (inactive)
same,GI50,SF-295,1.74 µM (inactive)
same,GI50,SK-MEL-2,2.07 µM (inactive)
same,GI50,SK-MEL-5,2.01 µM (inactive)
same,GI50,SK-OV-3,2.75 µM (inactive)
same,GI50,SN12C,3.65 µM (inactive)
same,GI50,SNB-19,3.24 µM (inactive)
same,GI50,SNB-75,3.79 µM (inactive)
same,GI50,SR,2.73 µM (inactive)
same,GI50,SW-620,1.58 µM (inactive)
same,GI50,T47D,2.7 µM (inactive)
same,GI50,UACC-257,3.33 µM (inactive)
same,GI50,UACC-62,1.94 µM (inactive)
same,GI50,UO-31,1.71 µM (inactive)
CCOC(=O)CCC(C(=O)OCC)n1nc2ccc(Nc3c(C)[n+]([O-])c4cc(Cl)ccc4[n+]3[O-])cc2n1 (centres undefined),GI50,786-0,83.9 µM (inactive)
same,GI50,A498,> 100 µM (inactive)
same,GI50,A549,> 100 µM (inactive)
same,GI50,ACHN,> 100 µM (inactive)
same,GI50,BT-549,> 100 µM (inactive)
same,GI50,CAKI-1,61.7 µM (inactive)
same,GI50,CCRF-CEM,49.3 µM (inactive)
same,GI50,COLO 205,75.7 µM (inactive)
same,GI50,DU-145,> 100 µM (inactive)
same,GI50,EKVX,32.2 µM (inactive)
same,GI50,HCT-116,30.1 µM (inactive)
same,GI50,HCT-15,88.1 µM
same,GI50,HL-60,96.8 µM (inactive)
same,GI50,HOP-62,> 100 µM (inactive)
same,GI50,HOP-92,27 µM (inactive)
same,GI50,HT-29,64.9 µM (inactive)
same,GI50,Hs-578T,59.6 µM (inactive)
same,GI50,IGROV-1,> 100 µM (inactive)
same,GI50,K562,82 µM (inactive)
same,GI50,KM12,> 100 µM (inactive)
same,GI50,LOX IMVI,58.3 µM (inactive)
same,GI50,M14,> 100 µM (inactive)
same,GI50,MCF7,38.2 µM (inactive)
same,GI50,MDA-MB-435,69.7 µM (inactive)
same,GI50,MDA-N,98.4 µM (inactive)
same,GI50,MOLT-4,32.3 µM (inactive)
same,GI50,Malme-3M,> 100 µM (inactive)
same,GI50,NCI-H226,62.4 µM (inactive)
same,GI50,NCI-H23,> 100 µM (inactive)
same,GI50,NCI-H460,24.3 µM (inactive)
same,GI50,NCI-H522,40 µM (inactive)
same,GI50,NCI/ADR-RES,> 100 µM (inactive)
same,GI50,OVCAR-3,> 100 µM (inactive)
same,GI50,OVCAR-4,65.8 µM (inactive)
same,GI50,OVCAR-5,> 100 µM (inactive)
same,GI50,OVCAR-8,> 100 µM (inactive)
same,GI50,PC-3,76.7 µM (inactive)
same,GI50,RPMI-8226,19.5 µM (inactive)
same,GI50,RXF 393,30.8 µM (inactive)
same,GI50,SF-268,39.1 µM (inactive)
same,GI50,SF-295,82.4 µM (inactive)
same,GI50,SF-539,> 100 µM (inactive)
same,GI50,SK-MEL-2,96.2 µM (inactive)
same,GI50,SK-MEL-5,75 µM (inactive)
same,GI50,SK-OV-3,> 100 µM (inactive)
same,GI50,SN12C,73.3 µM (inactive)
same,GI50,SNB-19,> 100 µM (inactive)
same,GI50,SNB-75,> 100 µM (inactive)
same,GI50,SR,10.1 µM (inactive)
same,GI50,SW-620,> 100 µM (inactive)
same,GI50,T47D,32.9 µM (inactive)
same,GI50,TK-10,> 100 µM (inactive)
same,GI50,U-251,> 100 µM (inactive)
same,GI50,UACC-257,94.4 µM (inactive)
same,GI50,UACC-62,66.1 µM (inactive)
same,GI50,UO-31,81.8 µM (inactive)
CNC(=O)N(CCC#N)[C@H]1CCCC[C@@H]1N(C(=O)NC)c1ccccc1,GI50,786-0,> 100 µM (inactive)
same,GI50,A549,> 100 µM (inactive)
same,GI50,ACHN,> 100 µM (inactive)
same,GI50,BT-549,> 100 µM (inactive)
same,GI50,CAKI-1,> 100 µM (inactive)
same,GI50,CCRF-CEM,> 100 µM (inactive)
same,GI50,COLO 205,> 100 µM (inactive)
same,GI50,DU-145,> 100 µM (inactive)
same,GI50,EKVX,> 100 µM (inactive)
same,GI50,HCC 2998,> 100 µM (inactive)
same,GI50,HCT-116,> 100 µM (inactive)
same,GI50,HCT-15,> 100 µM
same,GI50,HOP-62,> 100 µM (inactive)
same,GI50,HOP-92,> 100 µM (inactive)
same,GI50,HT-29,> 100 µM (inactive)
same,GI50,IGROV-1,> 100 µM (inactive)
same,GI50,K562,> 100 µM (inactive)
same,GI50,KM12,> 100 µM (inactive)
same,GI50,LOX IMVI,> 100 µM (inactive)
same,GI50,M14,> 100 µM (inactive)
same,GI50,MCF7,> 100 µM (inactive)
same,GI50,MDA-MB-231,> 100 µM (inactive)
same,GI50,MDA-MB-435,> 100 µM (inactive)
same,GI50,MDA-N,> 100 µM (inactive)
same,GI50,MOLT-4,> 100 µM (inactive)
same,GI50,Malme-3M,> 100 µM (inactive)
same,GI50,NCI-H226,> 100 µM (inactive)
same,GI50,NCI-H23,> 100 µM (inactive)
same,GI50,NCI-H460,> 100 µM (inactive)
same,GI50,NCI-H522,> 100 µM (inactive)
same,GI50,NCI/ADR-RES,> 100 µM (inactive)
same,GI50,OVCAR-3,> 100 µM (inactive)
same,GI50,OVCAR-4,> 100 µM (inactive)
same,GI50,OVCAR-5,> 100 µM (inactive)
same,GI50,OVCAR-8,> 100 µM (inactive)
same,GI50,PC-3,> 100 µM (inactive)
same,GI50,RPMI-8226,> 100 µM (inactive)
same,GI50,RXF 393,> 100 µM (inactive)
same,GI50,SF-295,> 100 µM (inactive)
same,GI50,SF-539,> 100 µM (inactive)
same,GI50,SK-MEL-28,> 100 µM (inactive)
same,GI50,SK-MEL-2,> 100 µM (inactive)
same,GI50,SK-MEL-5,> 100 µM (inactive)
same,GI50,SK-OV-3,> 100 µM (inactive)
same,GI50,SN12C,> 100 µM (inactive)
same,GI50,SNB-19,> 100 µM (inactive)
same,GI50,SNB-75,> 100 µM (inactive)
same,GI50,SR,> 100 µM (inactive)
same,GI50,SW-620,> 100 µM (inactive)
same,GI50,T47D,> 100 µM (inactive)
same,GI50,TK-10,> 100 µM (inactive)
same,GI50,U-251,> 100 µM (inactive)
same,GI50,UACC-257,> 100 µM (inactive)
same,GI50,UACC-62,> 100 µM (inactive)
same,GI50,UO-31,> 100 µM (inactive)
CC/C(=C(\c1ccccc1)c1ccc(OCCN(C)C)cc1)c1ccccc1 [TAMOXIFEN CITRATE],GI50,786-0,4.43 µM (inactive)
same,GI50,A498,4.38 µM (inactive)
same,GI50,A549,5.79 µM (inactive)
same,GI50,ACHN,6.1 µM (inactive)
same,GI50,BT-549,6.07 µM (inactive)
same,GI50,CCRF-CEM,4.75 µM (inactive)
same,GI50,COLO 205,4.1 µM (inactive)
same,GI50,EKVX,7.03 µM (inactive)
same,GI50,HCC 2998,3.81 µM (inactive)
same,GI50,HCT-116,4.8 µM (inactive)
same,GI50,HCT-15,4.67 µM
same,GI50,HOP-62,5.12 µM (inactive)
same,GI50,HOP-92,4.57 µM (inactive)
same,GI50,HT-29,3.44 µM (inactive)
same,GI50,Hs-578T,5.58 µM (inactive)
same,GI50,IGROV-1,5.75 µM (inactive)
same,GI50,K562,3.3 µM (inactive)
same,GI50,LOX IMVI,3.99 µM (inactive)
same,GI50,M14,4.42 µM (inactive)
same,GI50,MCF7,1.65 µM (inactive)
same,GI50,MDA-MB-231,4.97 µM (inactive)
same,GI50,MDA-N,4.68 µM (inactive)
same,GI50,MOLT-4,3.4 µM (inactive)
same,GI50,NCI-H226,6.34 µM (inactive)
same,GI50,NCI-H23,5.93 µM (inactive)
same,GI50,NCI/ADR-RES,5.28 µM (inactive)
same,GI50,OVCAR-3,5 µM (inactive)
same,GI50,OVCAR-4,5.6 µM (inactive)
same,GI50,OVCAR-8,6.32 µM (inactive)
same,GI50,PC-3,4.18 µM (inactive)
same,GI50,RXF 393,3.87 µM (inactive)
same,GI50,SK-MEL-2,5.45 µM (inactive)
same,GI50,SK-MEL-5,4.17 µM (inactive)
same,GI50,SR,4.86 µM (inactive)
same,GI50,T47D,3.05 µM (inactive)
same,GI50,TK-10,5.18 µM (inactive)
same,GI50,UACC-257,4.81 µM (inactive)
same,GI50,UACC-62,5.26 µM (inactive)
same,GI50,UO-31,4.14 µM (inactive)
